The text below walks through data of patent publication US11008290B2, “Halogenated quinoline derivatives as antimicrobial agents” (University of Florida Research Foundation, Incorporated, priority 2015, dated 2021).

Values after ≈ are worked out from the molar mass of the structure shown. Where two headings read alike, the source gives them in different places. Some results are limits rather than exact numbers.

As a reminder, the MIC is the least concentration at which growth counts as inhibited.

Series [1] concerns MRSA-2 planktonic cells and biofilms. Nature of the series: Calgary Biofilm Device (CBD) MBC/MBEC determination. It counts as cell-based, Staphylococcus aureus. Conditions: Staphylococcus aureus, MRSA, Table 3; planktonic killing, CBD; first value of MBC/MBEC cell; read-out: MRSA-2 MBC. How it is done: (§1) Biofilm eradication experiments were performed using the Calgary Biofilm Device to determine MBC/MBEC values for various compounds of interest (Innovotech, product code: 19111). The Calgary device (96-well plate with lid containing 96 total pegs to establish biofilms; 1 peg/well) was inoculated with 125 μL of a mid-log phase culture diluted 1,000-fold in tryptic soy broth with 0.5% glucose (TSBG) to establish bacterial biofilms after incubation at 37° C. for 24 hours. The lid of the Calgary device was then removed, washed and transferred to another 96-well plate containing 2-fold serial dilutions of the test compounds (the “challenge plate”). The total volume of media with compound in each well in the challenge plate was 150 μL. The Calgary device was then incubated at 37° C. for 24 hours. The lid was then removed from the challenge plate and MBC/MBEC values were determined using different final assays. […] The MBC values were determined as the concentration giving a lack of visible bacterial growth (e.g., turbidity). For determination of MBEC values, the Calgary device lid (with attached pegs/treated biofilms) was transferred to a new 96-well plate containing 150 μL of fresh TSBG media in each well and incubated for 24 hours at 37° C. to allow viable biofilms to grow and disperse resulting in turbidity after the incubation period. […] In select experiments, treated pegs from the Calgary device were removed from lead biofilm eradicators after final incubation, sonicated for 30 minutes in PBS and plated out to determine biofilm cell killing (e.g., colony forming unit per milliliter, CFU/mL).

The next series has as its system human red blood cells. Nature of the series: Hemolysis assay. It counts as cell-based. The conditions noted are these: human, 1 h, pH 7.2. How it is done: Freshly drawn human red blood cells (hRBC with ethylenediaminetetraacetic acid (EDTA) as an anticoagulant) were washed with Tris-buffered saline (0.01M Tris-base, 0.155M sodium chloride (NaCl), pH 7.2) and centrifuged for 5 minutes at 3500 rpm. The washing was repeated three times with the buffer. In 96-well plate, the test compounds were added to the buffer. […] The plate was then incubated for 1 hour at 37° C. After incubation, the plate is centrifuged for 5 minutes at 3500 rpm. Then 80 μL of the supernatant were transferred to another 96-well plate and the Optical Density (OD) was read at 405 nm. […] The percent of hemolysis was calculated as (OD405 of the compound-OD405 DMSO)/(OD405 Triton X-OD405 buffer).

In series [2] the test system is methicillin-resistant Staphylococcus aureus-2 (MRSA-2; clinical isolate). The series can be described thus: Minimum inhibitory concentration (MIC) susceptibility assay, broth microdilution. The format is cell-based. The conditions noted are these: Staphylococcus, MRSA. Here is the method:
(§2) The minimum inhibitory concentration (MIC) for each compound was determined by the broth microdilution method as recommended by the Clinical and Laboratory Standards Institute (CLSI). In a 96-well plate, eleven two-fold serial dilutions of each compound were made in a final volume of 100 μL Luria Broth. Each well was inoculated with ˜10^5 bacterial cells at the initial time of incubation, prepared from a fresh log phase culture (OD600 of 0.5 to 1.0 depending on bacterial strain). […] The concentration range tested for each compound during this study was 0.10 to 100 μM. DMSO served as the vehicle and negative control in each microdilution MIC assay. DMSO was serially diluted with a top concentration of 1% v/v. Bacterial strains used: methicillin-resistant Staphylococcus aureus-2 (MRSA-2; clinical isolate from Shands Hospital in Gainesville, Fla.), methicillin-resistant Staphylococcus epidermidis (MRSE; ATCC 35984), vancomycin-resistant Enterococcus faecium (VRE, ATCC 700221).
For orientation: Dilution methods test growth across graded concentrations, often in twofold steps.

Series [3] concerns methicillin-resistant Staphylococcus epidermidis (MRSE; ATCC 35984). The description is as above. Conditions: Staphylococcus epidermidis; Table 3; read-out: MRSE MIC. It counts as cell-based. How it is done: as §2
Series [4] deals with vancomycin-resistant Enterococcus faecium (VRE, ATCC 700221). Described as above. It counts as cell-based. The conditions noted are these: Table 3; read-out: VRE MIC. Here is the method:
as §2

Series [5] deals with MRSE (ATCC 35984) planktonic cells and biofilms. Nature of the series: Calgary Biofilm Device (CBD) MBC/MBEC determination. The format is cell-based, Staphylococcus epidermidis. Conditions: Staphylococcus epidermidis; Table 3; planktonic killing, CBD; first value of cell; read-out: MRSE MBC. How it is done: as §1
For series [6], the system named is VRE (ATCC 700221) planktonic cells and biofilms. Described as above. The conditions noted are these: Enterococcus; Table 3; planktonic killing, CBD; first value of cell; footnote c = lowest concentration tested; read-out: VRE MBC. The format is cell-based, Enterococcus faecium. How it is done:
as §1

[7] abbreviates: Table 3, at least three independent experiments, read-out: MRSA-2 MIC.

Regarding `NC(=O)c1cnccn1` [Pyrazinamide, reference compound], the MBC in series [1] is > 2000 µM. For the same molecule, the “% Haemolysis at 200 μM” value with human red blood cells is listed as ≤1%.
For the molecule `CCCCCNCc1ccc2c(Br)cc(Br)c(O)c2n1` [RA-HQ-2], the minimal inhibitory concentration (MIC) in series [2] (setting [7]) was 2.35 µM (≈ 0.945 µg/mL); in series [2] (read-out: MIC) it was 3.13 µM (≈ 1.26 µg/mL); in series [3], 1.56 µM (≈ 0.627 µg/mL); in series [4], 3.13 µM (≈ 1.26 µg/mL). Also, the figures for the MBC in series [1], in series [5] and in series [6] were 31.3 µM (≈ 12.6 µg/mL), 23.5 µM (≈ 9.45 µg/mL) and 15.6 µM (≈ 6.27 µg/mL), respectively. For the same molecule, in the series with human red blood cells, the “% Haemolysis at 200 μM” value came out at 87.9%.
As to `Oc1c(Br)cc(Br)c2ccc(CNc3ccc(Cl)cc3)nc12` [RA-HQ-13], the minimum inhibitory concentration (MIC) came to 0.78 µM (≈ 0.345 µg/mL) in series [2] (setting [7]), 0.3 µM (≈ 0.133 µg/mL) in series [3] and 0.78 µM (≈ 0.345 µg/mL) in series [4]. Moreover, the results for the MBC in series [1], in series [5] and in series [6] were 31.3 µM (≈ 13.9 µg/mL), 31.3 µM (≈ 13.9 µg/mL) and 1.5 µM (≈ 0.664 µg/mL), respectively. Further, in the series with human red blood cells, the “% Haemolysis at 200 μM” value was 17.6%.
Turning to `Oc1c(Br)cc(Br)c2ccc(CNc3ccc(I)cc3)nc12` [RA-HQ-14], the minimum inhibitory concentration (MIC) in series [2] (setting [7]) came to 4.69 µM (≈ 2.5 µg/mL); in series [3], 0.78 µM (≈ 0.417 µg/mL); in series [4], 4.69 µM (≈ 2.5 µg/mL). The values for the MBC in series [1], in series [5] and in series [6] were 250 µM (≈ 133 µg/mL), 46.9 µM (≈ 25 µg/mL) and 46.9 µM (≈ 25 µg/mL), respectively. In addition, in the series with human red blood cells, the “% Haemolysis at 200 μM” value worked out at 11.0%.
In the case of `Oc1c(Br)cc(Br)c2ccc(CNc3cccc(Br)c3)nc12` [RA-HQ-15], the MIC in series [2] (setting [7]) is 1.56 µM (≈ 0.76 µg/mL); in series [3], 0.2 µM (≈ 0.0974 µg/mL); in series [4] it was 0.78 µM (≈ 0.38 µg/mL). Also, the values for the MBC in series [1], in series [5] and in series [6] were 188 µM (≈ 91.6 µg/mL), 31.3 µM (≈ 15.2 µg/mL) and 7.8 µM (≈ 3.8 µg/mL), respectively. Besides, the “% Haemolysis at 200 μM” value in the series with human red blood cells is listed as 37.3%.
With `Oc1c(Br)cc(Br)c2ccc(CNc3cc(Br)ccc3Br)nc12` [RA-HQ-17], the MIC was found to be 3.13 µM (≈ 1.77 µg/mL) in series [2] (setting [7]), 0.59 µM (≈ 0.334 µg/mL) in series [3] and 1.56 µM (≈ 0.883 µg/mL) in series [4]. Moreover, the MBC in series [1] was determined as 750 µM (≈ 424 µg/mL); in series [5], 188 µM (≈ 106 µg/mL); in series [6], 31.3 µM (≈ 17.7 µg/mL). Further, the “% Haemolysis at 200 μM” value in the series with human red blood cells came out at 7.4%.
Regarding `Oc1c(I)cc(I)c2ccc(CNc3ccccc3)nc12` [RA-HQ-22], the MIC is > 100 µM in series [2] (setting [7]), 4.69 µM (≈ 2.35 µg/mL) in series [3] and 9.38 µM (≈ 4.71 µg/mL) in series [4]. For the same molecule, the MBC was > 1000 µM in series [1], 250 µM (≈ 126 µg/mL) in series [5] and 31.3 µM (≈ 15.7 µg/mL) in series [6]. The “% Haemolysis at 200 μM” value in the series on human red blood cells is 3.0%.
